Results reported in patent US20050256176A1, “Sulphonamide derivatives and their use as tace inhibitors” (priority 2002, published 2005).

Biological target: T1, proTNF-α convertase enzyme (TACE) (Homo sapiens, UniProt P78536)
T1 construct: a partially purified, isolated enzyme assay, the enzyme being obtained from the membranes of THP-1; endogenous in cells; host or cells: THP-1 cell membranes, partially purified as in Mohler et al. (1994) Nature 370:218-220
Experiment: Isolated enzyme assay, proTNF-α convertase (TACE), fluorescent peptide substrate
Format: biochemical
Details: partially purified enzyme from membranes of THP-1; 26° C. for 4 hours; read-out: concentration giving 50% inhibition of TACE
Experimental: Recombinant human proMMP13 may be expressed and purified as described by Knauper et al. [V. Knauper et al., (1996) […] 271:1544-1550 (1996)]. […] Activity is determined by measuring the fluorescence at λex 328 nm and λem 393 nm. Percent inhibition is calculated as follows: % Inhibition is equal to the [Fluorescenceplus inhibitor−Fluorescencebackground] divided by the [Fluorescenceminus inhibitor−Fluorescencebackground].
The ability of the compounds to inhibit proTNF-α convertase enzyme (TACE) may be assessed using a partially purified, isolated enzyme assay, the enzyme being obtained from the membranes of THP-1 as described by K. M. Mohler et al., (1994) Nature 370:218-220. The purified enzyme activity and inhibition thereof is determined by incubating the partially purified enzyme in the presence or absence of test compounds using the substrate 4′,5′-Dimethoxy-fluoresceinyl Ser.Pro.Leu.Ala.Gln.Ala.Val.Arg.Ser.Ser.Ser.Arg.Cys(4-(3-succinimid-1-yl)-fluorescein)-NH2 in assay buffer (50 mM Tris HCl, pH 7.4 containing 0.1% (w/v) Triton X-100 and 2 mM CaCl2), at 26° C. for 4 hours. The amount of inhibition is determined as for MMP13 except λex 485 nm and λem 538 nm were used. […]

T1 sequence (P78536 215-824): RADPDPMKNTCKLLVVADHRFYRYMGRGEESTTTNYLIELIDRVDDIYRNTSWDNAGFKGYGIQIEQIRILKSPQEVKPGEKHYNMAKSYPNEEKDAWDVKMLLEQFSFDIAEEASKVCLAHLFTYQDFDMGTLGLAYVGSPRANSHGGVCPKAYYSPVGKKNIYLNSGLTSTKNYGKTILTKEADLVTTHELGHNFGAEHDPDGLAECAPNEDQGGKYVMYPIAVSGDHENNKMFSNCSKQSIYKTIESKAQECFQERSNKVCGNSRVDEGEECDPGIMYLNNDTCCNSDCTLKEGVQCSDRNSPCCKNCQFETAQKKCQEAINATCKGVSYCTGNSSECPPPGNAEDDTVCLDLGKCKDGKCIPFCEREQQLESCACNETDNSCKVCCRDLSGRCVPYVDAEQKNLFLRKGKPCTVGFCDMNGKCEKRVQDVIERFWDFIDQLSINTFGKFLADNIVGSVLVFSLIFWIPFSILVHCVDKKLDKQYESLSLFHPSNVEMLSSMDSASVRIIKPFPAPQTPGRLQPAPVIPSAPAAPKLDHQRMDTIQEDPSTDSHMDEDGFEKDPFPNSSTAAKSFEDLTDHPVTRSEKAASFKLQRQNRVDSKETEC

Row | IC50 | Compound
1 | 71 nM | Cc1cc(COc2ccc(NS(=O)(=O)CC3(C)NC(=O)NC3=O)cc2)c2ccccc2n1 (centres unmarked) [Example 1A, 1-(4-methyl-2,5-dioxoimidazolidin-4-yl)-N-{4-[(2-methylquinolin-4-yl)methoxy]phenyl}methanesulphonamide]
2 | 37 nM | CCC1(CS(=O)(=O)Nc2ccc(OCc3cc(C)nc4ccccc34)cc2)NC(=O)NC1=O (centres unmarked) [Example 2A, 1-(4-ethyl-2,5-dioxoimidazolidin-4-yl)-N-{4-[(2-methylquinolin-4-yl)methoxy]phenyl}methanesulphonamide]
